Measurements published in patent US20080207614A1, “QUINAZOLINE DERIVATIVES FOR THE TREATMENT AND PREVENTION OF DIABETES AND OBESITY” (SK CHEMICALS CO., LTD., priority 2004, published 2008).

Legend:
AMPK = experiment: Measurement of AMPK activity by Western blot in C2C12 cells; assay type: cell-based; set-up: key to AMPK activity (degree of phosphorylation of serine-79 and threonine-172): fold increase in threonine-172 phosphorylation; settings: 10 μM for 50 minutes, no superscript: Western blot of serine-79 and threonine-172 phosphorylation
Procedure, shortened: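 Differentiated C2C12 cells were exposed to test material at 10 μM for 50 minutes, then lysed. AMPK activity was taken from Western blots of Thr-172 phosphorylation and acetyl CoA carboxylase Ser-79 phosphorylation, with ERK as loading reference. Thr-172 rise was graded strong (≥3-fold), mild (1-3-fold) or weak (<1-fold).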

C2C12 muscle cells = experiment: Analysis of glucose absorption (2-deoxyglucose) in differentiated C2C12 muscle cells; assay type: cell-based; settings: test materials 10 μM, times relative to control group
Procedure, shortened: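 Differentiated C2C12 myotubes (6 days in 1% serum) held 3 h in KRB with 5 mM glucose, then given test material at 10 μM. After 30 min, 0.2 μCi 2-deoxyglucose added for 20 min; uptake measured by radioactive counting of NaOH lysates.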

SMILES	AMPK activity (degree of phosphorylation of serine-79 and threonine-172) (AMPK)	Glucose absorption (C2C12 muscle cells)
COc1cccc(CNc2nc(Cc3ccccc3)nc3ccccc23)c1OC [Compound 329, (2-Benzylquinazolino-4-yl)-(2,3-dimethoxybenzyl)-amine]	4.2	1.8
COc1cc(CNc2nc(Cc3ccccc3)nc3ccccc23)cc(OC)c1 [Compound 330, (2-Benzylquinazolino-4-yl)-(3,5-dimethoxybenzyl)-amine]	1.7	1.2
COc1cc(CNc2nc(-c3ccco3)nc3ccccc23)cc(OC)c1 [Compound 343, (3,5-Dimethoxybenzyl)-(2-furano-2-ylquinazolino-4-yl)-amine]	0.8	1.3
COc1cc(CNc2nc(-c3ccco3)nc3ccccc23)cc(OC)c1OC [Compound 345, (2-Furano-2-ylquinazolino-4-yl)-(3,4,5-trimethoxybenzyl)-amine]	1.1	1.3
COc1cccc(CNc2nc(-c3cccs3)nc3ccccc23)c1OC [Compound 353, (2,3-Dimethoxybenzyl)-(2-thiopenyl-2-ylquinazolino-4-yl)-amine]	0.8	1.2
COc1ccc(CNc2nc(-c3cccs3)nc3ccccc23)cc1OC [Compound 355, (3,4-Dimethoxybenzyl)-(2-thiopenyl-2-ylquinazolino-4-yl)-amine]	1.1	1.2
COc1ccccc1CNc1nc(C(OC)c2ccccc2)nc2ccccc12 (stereo not shown) [Compound 360, (2-Methoxybenzyl)-[2-(methoxyphenylmethyl)-quinazolino-4-yl]-amine]	2.2	1.4
COc1cccc(CNc2nc(C(OC)c3ccccc3)nc3ccccc23)c1 (stereo not shown) [Compound 361, (3-Methoxybenzyl)-[2-(methoxyphenylmethyl)-quinazolino-4-yl]-amine]	2.1	1.3
COc1ccc(CNc2nc(C(OC)c3ccccc3)nc3ccccc23)cc1 (stereo not shown) [Compound 362, (4-Methoxybenzyl)-[2-(methoxyphenylmethyl)-quinazolino-4-yl]-amine]	2.6	1.2
COC(c1ccccc1)c1nc(NCc2ccc3c(c2)OCO3)c2ccccc2n1 (stereo not shown) [Compound 363, Benzo[1,3]dioxol-5-ylmethyl-[2-(methoxyphenylmethyl)-quinazolino-4-yl]-amine]	1.4	1.3
COc1cccc(CNc2nc(C(OC)c3ccccc3)nc3ccccc23)c1OC (stereo not shown) [Compound 364, (2,3-Dimethoxybenzyl)-[2-(methoxyphenylmethyl)-quinazolino-4-yl]-amine]	1.2	1.3
COc1ccc(CNc2nc(C(OC)c3ccccc3)nc3ccccc23)c(OC)c1 (stereo not shown) [Compound 368, (2,4-Dimethoxybenzyl)-[2-(methoxyphenylmethyl)-quinazolino-4-yl]-amine]	5.9	1.1
COc1ccc(OC)c(CNc2nc(C(OC)c3ccccc3)nc3ccccc23)c1 (stereo not shown) [Compound 369, (2,5-Dimethoxybenzyl)-[2-(methoxyphenylmethyl)-quinazolino-4-yl]-amine]	4.5	1.1
COc1cc(OC)c(CNc2nc(C(OC)c3ccccc3)nc3ccccc23)c(OC)c1 (stereo not shown) [Compound 370, [2-(Methoxyphenylmethyl)-quinazolino-4-yl]-(2,4,6-trimethoxybenzyl)-amine]	7.7	1.3
COc1ccccc1CNc1nc(C(C)c2ccccc2)nc2ccccc12 (stereo not shown) [Compound 371, (2-Methoxybenzyl)-[2-(1-phenylethyl)-quinazolino-4-yl]-amine]	2.8	1.2
COc1cccc(CNc2nc(C(C)c3ccccc3)nc3ccccc23)c1 (stereo not shown) [Compound 372, (3-Methoxybenzyl)-[2-(1-phenylethyl)-quinazolino-4-yl]-amine]	6.3	1.1
COc1ccc(CNc2nc(C(C)c3ccccc3)nc3ccccc23)cc1 (stereo not shown) [Compound 373, (4-Methoxybenzyl)-[2-(1-phenylethyl)-quinazolino-4-yl]-amine]	2.1	1.1
CC(c1ccccc1)c1nc(NCc2ccc3c(c2)OCO3)c2ccccc2n1 (stereo not shown) [Compound 374, Benzo[1,3]dioxol-5-ylmethyl-[2-(1-phenylethyl)-quinazolino-4-yl]-amine]	1.9	1.1

SMILES	AMPK activity (degree of phosphorylation of serine-79 and threonine-172) (AMPK)	Glucose absorption (C2C12 muscle cells)
COc1cccc(CNc2nc(C(C)c3ccccc3)nc3ccccc23)c1OC (stereo not shown) [Compound 375, (2,3-Dimethoxybenzyl)-[2-(1-phenylethyl)-quinazolino-4-yl]-amine]	5.2	1.1
COc1cc(CNc2nc(C(C)c3ccccc3)nc3ccccc23)cc(OC)c1 (stereo not shown) [Compound 376, (3,5-Dimethoxybenzyl)-[2-(1-phenylethyl)-quinazolino-4-yl]-amine]	1.1	1.1
COc1ccc(CNc2nc(C(C)c3ccccc3)nc3ccccc23)cc1OC (stereo not shown) [Compound 377, (3,4-Dimethoxybenzyl)-[2-(1-phenylethyl)-quinazolino-4-yl]-amine]	2.3	1.1
COc1cc(CNc2nc(C(C)c3ccccc3)nc3ccccc23)cc(OC)c1OC (stereo not shown) [Compound 378, [2-(1-Phenylethyl)-quinazolino-4-yl]-(3,4,5-trimethoxybenzyl)-amine]	4.7	0.9
COc1ccc(CNc2nc(C(C)c3ccccc3)nc3ccccc23)c(OC)c1 (stereo not shown) [Compound 379, (2,4-Dimethoxybenzyl)-[2-(1-phenylethyl)-quinazolino-4-yl]-amine]	6.1	1.1
COc1ccc(OC)c(CNc2nc(C(C)c3ccccc3)nc3ccccc23)c1 (stereo not shown) [Compound 380, (2,5-Dimethoxybenzyl)-[2-(1-phenylethyl)-quinazolino-4-yl]-amine]	1.9	1.0
COc1cc(OC)c(CNc2nc(C(C)c3ccccc3)nc3ccccc23)c(OC)c1 (stereo not shown) [Compound 381, [2-(1-Phenylethyl)-quinazolino-4-yl]-(2,4,6-trimethoxybenzyl)-amine]	4.0	1.2
COc1ccccc1CNc1nc(C2CC2)nc2ccccc12 [Compound 382, (2-Cyclopropylquinazolino-4-yl)-(2-methoxybenzyl)-amine]	2.2	1.2
COc1cccc(CNc2nc(C3CC3)nc3ccccc23)c1 [Compound 383, (2-Cyclopropylquinazolino-4-yl)-(3-methoxybenzyl)-amine]	2.2	1.4
COc1ccc(CNc2nc(C3CC3)nc3ccccc23)cc1 [Compound 384, (2-Cyclopropylquinazolino-4-yl)-(4-methoxybenzyl)-amine]	2.0	1.2
COc1cc(CNc2nc(C3CC3)nc3ccccc23)cc(OC)c1 [Compound 387, (2-Cyclopropylquinazolino-4-yl)-(3,5-dimethoxybenzyl)-amine]	1.5	1.2
COc1ccc(CNc2nc(C3CC3)nc3ccccc23)cc1OC [Compound 388, (2-Cyclopropylquinazolino-4-yl)-(3,4-dimethoxybenzyl)-amine]	2.8	1.2
COc1cc(CNc2nc(C3CC3)nc3ccccc23)cc(OC)c1OC [Compound 389, (2-Cyclopropylquinazolino-4-yl)-(3,4,5-trimethoxybenzyl)-amine]	2.2	1.3
COc1ccc(CNc2nc(C3CC3)nc3ccccc23)c(OC)c1 [Compound 390, (2-Cyclopropylquinazolino-4-yl)-(2,4-dimethoxybenzyl)-amine]	3.8	1.1
COc1ccc(OC)c(CNc2nc(C3CC3)nc3ccccc23)c1 [Compound 391, (2-Cyclopropylquinazolino-4-yl)-(2,5-dimethoxybenzyl)-amine]	7.1	1.2
COc1cc(OC)c(CNc2nc(C3CC3)nc3ccccc23)c(OC)c1 [Compound 392, (2-Cyclopropylquinazolino-4-yl)-(2,4,6-trimethoxybenzyl)-amine]	2.7	1.1
CCCc1nc(NCc2cccc(OC)c2)c2ccccc2n1 [Compound 394, (3-Methoxybenzyl)-(2-propylquinazolino-4-yl)-amine]	4.5	1.3
